pKi: −log10 of the molar value. Read-outs that look alike come from different tables or passages of the source.

The assay has as its target T1, human BACE1 (sproBACE1) (Homo sapiens, UniProt P56817).
T1 construct: sBACE1, corresponding to amino acids 1-454; made in house; host or cells: Sf9 insect cells (baculovirus), secreted into the medium
Kind of assay: BACE-1 Peptide Hydrolysis Assay (HTRF). Type of assay: biochemical. An excerpt: A HindIII/PmeI fragment from pCDNA4-sBACE1myc/His was blunt ended using Klenow and subcloned into the Stu I site of PFASTBACI(A) (Invitrogen). A sBACE1mycHis recombinant bacmid was generated by transposition in DH10Bac cells (GIBCO/BRL). Subsequently, the sBACE1mycHis bacmid construct was transfected into sf9 cells using CellFectin (Invitrogen, San Diego, Calif.) in order to generate recombinant baculovirus. […] Five milliliters of high titer plaque purified sBACEmyc/His virus was used to infect 1 L of logarithmically growing sf9 cells for 72 hours. Intact cells were pelleted by centrifugation at 3000×g for 15 minutes. The supernatant, containing secreted sBACE1, was collected and diluted 50% v/v with 100 mM HEPES, pH 8.0. The diluted medium was loaded onto a Q-sepharose column. The Q-sepharose column was washed with Buffer A (20 mM HEPES, pH 8.0, 50 mM NaCl).
Proteins, were eluted from the Q-sepharose column with Buffer B (20 mM HEPES, pH 8.0, 500 mM NaCl). The protein peaks from the Q-sepharose column were pooled and loaded onto a Ni-NTA agarose column. The Ni-NTA column was then washed with Buffer C (20 mM HEPES, pH 8.0, 500 mM NaCl). Bound proteins were then eluted with Buffer D (Buffer C+250 mM imidazole).
Reactions were initiated by addition of substrate in a 5 μl aliquot resulting in a total volume of 25 μl. After 3 hr at 30° C. reactions were terminated by addition of an equal volume of 2× stop buffer containing 50 mM Tris-HCl pH 8.0, 0.5 M KF, 0.001% Brij-35, 20 μg/ml SA-XL665 (cross-linked allophycocyanin protein coupled to streptavidin; CIS-Bio International, France) (0.5 μg/well). Plates were shaken briefly and spun at 1200×g for 10 seconds to pellet all liquid to the bottom of the plate before the incubation.
Y=Bottom+(Top-Bottom)/(1+10^((LogEC50−X)*Hill Slope)); X is the logarithm of concentration of I, Y is the percent change in ratio and Y starts at bottom and goes to top with a sigmoid shape.
For orientation: Time-resolved FRET reads energy transfer from a long-lived donor to a nearby acceptor.

T1 sequence (P56817 22-454): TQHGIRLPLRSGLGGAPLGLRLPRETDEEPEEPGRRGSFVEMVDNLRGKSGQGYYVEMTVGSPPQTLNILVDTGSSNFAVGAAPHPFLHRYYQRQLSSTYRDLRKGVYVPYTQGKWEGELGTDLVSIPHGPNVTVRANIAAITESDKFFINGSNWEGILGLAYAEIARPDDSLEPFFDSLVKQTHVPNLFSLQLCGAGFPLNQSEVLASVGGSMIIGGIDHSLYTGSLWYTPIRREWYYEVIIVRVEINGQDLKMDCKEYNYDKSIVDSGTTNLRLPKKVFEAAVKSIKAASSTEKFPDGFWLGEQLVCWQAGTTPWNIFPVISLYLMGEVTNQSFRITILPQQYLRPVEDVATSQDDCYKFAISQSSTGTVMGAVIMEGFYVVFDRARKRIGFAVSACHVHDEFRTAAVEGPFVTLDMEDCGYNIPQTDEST

The compound `CC(=O)N1CCC(CN2C(=N)NC(C)(c3cccc(-c4cnn(C)c4)c3)C2=O)CC1` (stereo not shown) gave a pKi above 5.30.
Still for that read-out and setting: the value for `CC(=O)N1CCC(CN2C(=N)NC(C)(c3cccc(-c4cn[nH]c4)c3)C2=O)CC1` (stereo not shown) was above 5.30; that for `CC(=O)N1CCC(CN2C(=N)NC(C)(c3cccc(-c4cccc5[nH]ccc45)c3)C2=O)CC1` (stereo not shown) was above 5.30; that for `COc1ccc(CNc2ccccc2)c(-c2cccc(C3(C)NC(=N)N(CC4CCN(C(C)=O)CC4)C3=O)c2)c1` (stereo not shown) was above 5.30.
The same measure, in the same setting: the value for `COc1ccc(C=O)c(-c2cccc(C3(C)NC(=N)N(CC4CCN(C(C)=O)CC4)C3=O)c2)c1` (stereo not shown) was above 5.30.
On the same count and under the same terms, to `CC(=O)N1CCC(CN2C(=N)NC(C)(c3cccc(-c4ccoc4)c3)C2=O)CC1` (stereo not shown) belongs above 5.30; to `CC(=O)N1CCC(CN2C(=N)NC(C)(c3cccc(-c4cccc(O)c4)c3)C2=O)CC1` (stereo not shown), above 5.30.
Consider `COCC1CCCN1C(=O)c1cccc(CN2C(=N)NC(C)(c3ccccc3)C2=O)c1` (stereo not shown), for which the pKi (read-out: BACE-1 Ki) is above 5.30.
Same read-out and setting: the value for `CN1OCC(C)(c2cc(-c3ccc(F)c(C#N)c3)cs2)NC1=N` (stereo not shown) was above 5.30.
The same measure, in the same setting: the value for `CN1C(=N)N[C@](CCc2ccccc2)(C[C@H]2CCC[C@@H](Nc3cccnc3)C2)C1=O` was above 5.30.
The same measure, in the same setting: to `CN1C(=N)N[C@](C)(C[C@H]2CCC[C@@H](Nc3cnccn3)C2)C1=O` belongs above 5.30.
Take `COc1cncc(-c2cccc(C3(C)NC(=N)N(CC4CC(=O)N(Cc5ccccc5)C4)C3=O)c2)c1` (stereo not shown): the pKi (read-out: BACE-1 Ki) is above 5.30.
Still for that read-out and setting: to `COc1cncc(-c2cccc(C3(C)NC(=N)N(CC4CC(=O)N(c5ccccc5)C4)C3=O)c2)c1` (stereo not shown) belongs above 5.30.
Still for that read-out and setting: to `CN1C(=N)N[C@](CCC2CCCCC2)(C[C@H]2CCC[C@@H](NC(=O)c3cc(Cl)nc(Cl)c3)C2)C1=O` belongs above 5.30; to `CCN1C(=N)N[C@](C)(c2cc(-c3cccc(C#N)c3)cs2)CC1=O`, above 5.30; to `CC(C)n1cc([C@H]2C(=O)N(C)C(=N)N[C@]2(C)c2cc(-c3cccc(C#N)c3)cs2)cn1`, above 5.30.
On the same count and under the same terms, to `CN1C(=N)NC(C)(c2cc(-c3cccc(C#N)c3)cs2)C(CC=Cc2ccccc2)C1=O` (stereo not shown) belongs above 5.30.
On to `CC1(c2cccc(-c3cccc(Cl)c3)c2)NC(=N)N(CC2CCN(C(=O)Nc3ccccc3)C2)C1=O` (stereo not shown), for which the pKi (read-out: BACE-1 Ki) is above 5.30.
Turning to `CN1C(=N)NC(c2cc(-c3cccc(CO)c3)cs2)(C2CC2)C1=O` (stereo not shown), the pKi (read-out: BACE-1 Ki) is above 5.30.
Still for that read-out and setting: to `CN1C(=N)NC(C)(c2ccnc(-c3cc(Cl)cc(Cl)c3)c2)C1=O` (stereo not shown) belongs above 5.30; to `CN1C(=N)N[C@](C)(c2ccc3scc(-c4ccc(C#N)s4)c3c2)CC1=O`, above 5.30.
The same measure, in the same setting: to `COc1cc(-c2cccc([C@@]3(C4CC4)NC(=N)N(C)C3=O)c2)ccc1O` belongs above 5.30.
As for `CN1C(=N)N[C@](C)(c2cc(-c3cccnc3F)cs2)[C@@H](C2CC2)C1=O`, for the setting “read-out: BACE-1 Ki”, the pKi was above 5.30.
Still for that read-out and setting: the value for `CCc1cccc(-n2cc([C@]3(C)CC(=O)N(C)C(=N)N3)cn2)c1` was above 5.30; that for `CN1C(=N)N[C@](C)(c2cc3cccc(Br)c3s2)CC1=O` was above 5.30; that for `C[C@H]1C(=O)N(C)C(=N)N[C@]1(C)c1cc2ccccc2s1` was above 5.30.
Same read-out and setting: the value for `N=C1NC(c2ccccc2)(c2ccccc2)C(=O)N1Cc1cccc(NC(=O)C2CCCCC2)c1` was above 5.30; that for `CS(=O)(=O)Nc1cccc(CN2C(=N)NC(c3ccccc3)(c3ccccc3)C2=O)c1` was above 5.30; that for `CN(c1cccc(CN2C(=N)NC(c3ccccc3)(c3ccccc3)C2=O)c1)S(C)(=O)=O` was above 5.30.
Still for that read-out and setting: the value for `CN1C(=N)N[C@](CCc2ccccc2)(C[C@H]2CCC[C@@H](NC(=O)c3cccnc3)C2)C1=O` was above 5.30; that for `CN1C(=N)N[C@](CCC2CCCCC2)(C[C@H]2CCC[C@@H](NC(=O)c3ccccn3)C2)C1=O` was above 5.30; that for `N=C1NC(c2ccccc2)(c2ccccc2)C(=O)N1C[C@H]1CCCN(C(=O)C2CC2)C1` was above 5.30.
Take `CC(C)Oc1cccc(-c2csc([C@]3(C)CC(=O)N(C)C(=N)N3)c2)c1`: the negative logarithm of the Ki (pKi) (read-out: BACE-1 Ki) is above 5.30.
In the case of `CSc1cccc(-c2csc([C@]3(C)CC(=O)N(C)C(=N)N3)c2)c1`, where the note is “read-out: BACE-1 Ki”, the pKi is above 5.30.

For orientation: pKi means the negative decadic logarithm of the Ki, by convention in mol/L.
